Molecules are shown by their SMILES. Where two headings read alike, the source gives them in different places.

Experiment [1] addresses T1, Recombinant STAT3 protein (STAT3 (G127-I722)) (Homo sapiens, UniProt P40763).
T1 construct: Recombinant STAT3 protein (STAT3 (G127-I722))
Put plainly: STAT3 Fluorescence Polarization (FP) Assay. The experiment is classed as binding. Particulars: probe 5-FAM-GpYLPQTV-NH2 2 nM, 45-minute incubation. Here is the method: STAT3 Fluorescence Polarization (FP) Assay
An FP assay was developed to determine IC50 values for test substances. Recombinant STAT3 protein (STAT3 (G127-I722)) at 25 nM was combined with a fluorescently labeled, phosphotyrosine peptide probe (5-FAM-GpYLPQTV-NH2) at 2 nM in FP buffer (10 mM HEPES pH 7.4, 50 mM NaCl, 1 mM EDTA, 0.05% Tween 20.2 mM DTT). 50 μL of STAT3-probe mixture was added to serial diluted compounds in black, 96-well plates (Greiner BioOne 655076) to a final concentration of 1% DMSO. Reaction components were mixed, and FP was measured after 45-minute incubation at room temperature using a Tecan Spark multimode plate reader. FP signal (mP) was plotted against the log concentration of the test substances and IC50 values were calculated by nonlinear regression analysis using GraphPad Prism software. For STAT3 FP assay, A=≤100 nM; B=>100-1000 nM; C=>1-10 μM; and D=>10 μM.
(In general: Polarisation of emitted light reports the rotation of a fluorescent probe.)

The target of experiment [2] is T2, Recombinant STAT6 protein (STAT6 (W123-T658)) (Homo sapiens, UniProt P42226).
T2 construct: Recombinant STAT6 protein (STAT6 (W123-T658))
T2 sequence (P42226 123-658): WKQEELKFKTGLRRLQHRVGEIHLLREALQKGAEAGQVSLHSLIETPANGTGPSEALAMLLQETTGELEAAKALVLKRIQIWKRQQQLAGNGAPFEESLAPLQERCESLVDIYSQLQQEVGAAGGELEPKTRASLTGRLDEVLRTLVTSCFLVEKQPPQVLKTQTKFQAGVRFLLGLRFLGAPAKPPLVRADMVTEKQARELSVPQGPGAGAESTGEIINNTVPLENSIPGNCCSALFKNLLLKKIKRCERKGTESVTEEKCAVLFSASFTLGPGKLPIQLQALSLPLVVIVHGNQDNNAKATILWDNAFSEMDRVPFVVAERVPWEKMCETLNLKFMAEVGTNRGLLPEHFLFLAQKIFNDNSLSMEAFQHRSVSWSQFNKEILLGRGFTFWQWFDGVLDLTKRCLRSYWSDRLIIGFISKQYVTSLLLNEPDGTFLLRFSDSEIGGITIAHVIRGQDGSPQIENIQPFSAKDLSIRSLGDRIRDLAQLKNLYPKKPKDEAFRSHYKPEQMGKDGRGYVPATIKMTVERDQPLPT
Kind of experiment: STAT6 Fluorescence Polarization (FP) Assay. It is filed as binding. Particulars: probe 5-FAM-Ap[…]-NH2 2 nM, 45-minute incubation. As to the method:
STAT6 Fluorescence Polarization (FP) Assay
An FP assay was developed to determine IC50 values for test substances. Recombinant STAT6 protein (STAT6 (W123-T658)) at 250 nM was combined with a fluorescently labeled, phosphotyrosine peptide probe (5-FAM-Ap[…]-NH2) at 2 nM in FP buffer (10 mM HEPES pH 7.4, 50 mM NaCl, 1 mM EDTA, 0.05% Tween 20, 2 mM DTT). 50 μL of STAT6-probe mixture was added to serial diluted compounds in black, 96-well plates (Greiner BioOne 655076) to a final concentration of 1% DMSO. Reaction components were mixed, and FP was measured after 45-minute incubation at room temperature using a Tecan Spark multimode plate reader. FP signal (mP) was plotted against the log concentration of the test substances and IC50 values were calculated by nonlinear regression analysis using GraphPad Prism software. For STAT6 FP assay, A=≤300 nM; B=>300-3000 nM; C=>3-30 μM; and D=>30 μM.

[3] abbreviates: STAT3 25 nM, read-out: STAT3 (FP assay IC50).
Where [4] appears, read: STAT6 250 nM, read-out: STAT6 (FP assay IC50).
Setting [5] is: STAT3 (G127-I722) 25 nM, read-out: STAT3 (FP assay IC50 class).
[6] abbreviates: STAT6 (W123-T658) 250 nM, read-out: STAT6 (FP assay IC50 class).

T1 sequence (P40763 127-722): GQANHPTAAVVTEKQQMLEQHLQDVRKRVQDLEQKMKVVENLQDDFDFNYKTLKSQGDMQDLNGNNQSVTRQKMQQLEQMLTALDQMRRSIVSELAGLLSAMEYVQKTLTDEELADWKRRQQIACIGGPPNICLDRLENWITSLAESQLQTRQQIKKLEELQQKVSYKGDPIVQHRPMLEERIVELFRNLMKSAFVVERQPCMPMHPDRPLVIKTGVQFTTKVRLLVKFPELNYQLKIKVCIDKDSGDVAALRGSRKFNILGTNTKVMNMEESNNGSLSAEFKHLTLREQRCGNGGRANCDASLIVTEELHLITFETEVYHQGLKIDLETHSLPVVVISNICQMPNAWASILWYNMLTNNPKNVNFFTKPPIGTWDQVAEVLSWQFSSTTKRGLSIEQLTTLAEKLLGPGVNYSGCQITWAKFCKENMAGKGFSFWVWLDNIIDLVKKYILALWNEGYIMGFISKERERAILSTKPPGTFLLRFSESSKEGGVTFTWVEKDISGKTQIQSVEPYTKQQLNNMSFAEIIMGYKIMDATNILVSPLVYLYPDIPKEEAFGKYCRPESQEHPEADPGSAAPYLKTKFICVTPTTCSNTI

For the molecule `N#C[C@@H]1CN(C(=O)[C@@H]2CC[C@@H]3C[C@@H](N4CCC4)CC[C@H](NC(=O)c4cc5cc(C(F)(F)P(=O)(O)O)ccc5s4)C(=O)N32)C[C@H]1c1ccccc1` (relative stereo) [Compound 21, ((2-(((3S,6S,9S,10aR)-9-(azetidin-1-yl)-3-(rel-(trans)-3-cyano-4-phenylpyrrolidine-1-carbonyl)-5-oxodecahydropyrrolo [1,2-a]azocin-6-yl)carbamoyl)benzo[b]thiophen-5-yl)difluoromethyl) phosphonic acid], the results for the half-inhibitory concentration (IC50) in experiment [1] (setting [3]) and in experiment [2] (setting [4]) were 1000 to 10000 nM and ≤ 300 nM, respectively.
On the same counts, the results for `N#C[C@H]1CN(C(=O)[C@@H]2CC[C@@H]3/C=C\CC[C@H](NC(=O)c4cc5cc(C(F)(F)P(=O)(O)O)ccc5s4)C(=O)N32)C[C@@H]1c1ccccc1` (relative stereo) [Compound 27, ((2-(((3S,6S,10aR,Z)-3-(rel-trans)3-cyano-4-phenylpyrrolidine-1-carbonyl)-5-oxo-1,2,3,5,6,7,8,10a-octahydropyrrolo[1,2-a]azocin-6-yl)carbamoyl)benzo[b]thiophen-5-yl) difluoromethyl) phosphonic acid] are 1000 to 10000 nM and ≤ 300 nM.
Regarding `N#C[C@@H]1CN(C(=O)[C@@H]2C[C@@H](O)[C@@H]3CCCCC[C@H](NC(=O)c4cc5cc(C(F)(F)P(=O)(O)O)ccc5s4)C(=O)N23)C[C@H]1c1ccccc1` (relative stereo) [Compound 76, ((2-(((1R,3S,6S, 11aS)-3-(rel-(trans)-3-cyano-4-phenylpyrrolidine-1-carbonyl)-1-hydroxy-5-oxodecahydro-1H-pyrrolo[1,2-a]azonin-6-yl)carbamoyl)benzo[b]thiophen-5-yl)difluoromethyl) phosphonic acid], the half-maximal inhibitory concentration (IC50) in experiment [1] (setting [3]) was 1000 to 10000 nM; in experiment [2] (setting [4]), ≤ 300 nM.
On the same counts, the results for `N#C[C@@H]1CN(C(=O)[C@@H]2CC[C@@H]3CCCC[C@H](NC(=O)c4ccc5ccc(C(F)(F)P(=O)(O)O)cc5c4)C(=O)N32)C[C@H]1c1cc[nH]c(=O)c1` (relative stereo) [Compound 83, ((7-(((3S,6S,10aS)-3-(rel-(trans)-3-cyano-4-(2-oxo-1,2-dihydropyridin-4-yl)pyrrolidine-1-carbonyl)-5-oxodecahydropyrrolo [1,2-a]azocin-6-yl)carbamoyl)naphthalen-2-yl)difluoromethyl) phosphonic acid] are 100 to 1000 nM and ≤ 300 nM.
On the same counts, the results for `C[C@]1(NC(=O)c2cc3cc(C(F)(F)P(=O)(O)O)ccc3s2)CCCC[C@H]2CC[C@@H](C(=O)N3C[C@H](c4ccccc4)[C@@H](C#N)C3)N2C1=O` (relative stereo) [Compound 84, ((2-(((3S,6S,10aS)-3-(rel-(trans)-3-cyano-4-phenylpyrrolidine-1-carbonyl)-6-methyl-5-oxodecahydropyrrolo [1,2-a]azocin-6-yl)carbamoyl)benzo[b]thiophen-5-yl)difluoromethyl) phosphonic acid] are 100 to 1000 nM and 300 to 3000 nM.
On the same counts, the results for `N#C[C@@H]1CN(C(=O)[C@@H]2CC[C@@H]3CCCC[C@H](NC(=O)c4cc5cc(C(F)(F)P(=O)(O)O)ccc5s4)C(=O)N32)C[C@H]1c1cc[nH]c(=O)c1` (relative stereo) [Compound 86, ((2-(((3S,6S,10aS)-3-(rel-(trans)-3-cyano-4-(2-oxo-1,2-dihydropyridin-4-yl)pyrrolidine-1-carbonyl)-5-oxodecahydropyrrolo [1,2-a]azocin-6-yl)carbamoyl)benzo[b]thiophen-5-yl)difluoromethyl) phosphonic acid] are 100 to 1000 nM and ≤ 300 nM.
On to `N#C[C@H]1CN(C(=O)[C@@H]2CC[C@@H]3CCCC[C@H](NC(=O)c4cc5cc(C(F)(F)P(=O)(O)O)ccc5s4)C(=O)N32)C[C@H]1c1ccccc1` (relative stereo) [Compound 92, ((2-(((3S,6S,10aS)-3-(rel-(trans)-3-cyano-4-phenylpyrrolidine-1-carbonyl)-5-oxodecahydropyrrolo [1,2-a]azocin-6-yl)carbamoyl)benzo[b]thiophen-5-yl)difluoromethyl) phosphonic acid], for which the IC50 in experiment [1] (setting [3]) fell in the range of 100 to 1000 nM; in experiment [2] (setting [4]), 300 to 3000 nM.
On the same counts, the results for `N#C[C@@H]1CN(C(=O)[C@@H]2CC[C@@H]3CCCC[C@H](NC(=O)c4cc5cc(C(F)(F)P(=O)(O)O)ccc5s4)C(=O)N32)C[C@H]1c1ccccc1` (relative stereo) [Compound 95, ((2-(((3S,6S,10aS)-3-(rel-(trans)-3-cyano-4-phenylpyrrolidine-1-carbonyl)-5-oxodecahydropyrrolo [1,2-a]azocin-6-yl)carbamoyl)benzo[b]thiophen-5-yl)difluoromethyl) phosphonic acid] are 100 to 1000 nM and ≤ 300 nM.
On the same counts, the results for `N#C[C@@H]1CN(C(=O)[C@@H]2CC[C@@H]3CCC[C@H](NC(=O)c4cc5cc(C(F)(F)P(=O)(O)O)ccc5s4)C(=O)N32)C[C@H]1c1ccccc1` (relative stereo) [Compound 96, ((2-(((3S,6S,9aS)-3-(rel-(trans)-3-cyano-4-phenylpyrrolidine-1-carbonyl)-5-oxooctahydro-1H-pyrrolo [1,2-a]azepin-6-yl)carbamoyl)benzo[b]thiophen-5-yl)difluoromethyl) phosphonic acid] are 100 to 1000 nM and ≤ 300 nM.
On the same counts, the results for `N#C[C@@H]1CN(C(=O)[C@@H]2CC[C@@H]3CCCC[C@H](NC(=O)c4cc5cc(C(F)(F)P(=O)(O)O)ccc5s4)C(=O)N32)C[C@H]1C1CC1` (relative stereo) [Compound 102, ((2-(((3S,6S,10aS)-3-(rel-(trans)-3-cyano-4-cyclopropyl-pyrrolidine-1-carbonyl)-5-oxodecahydropyrrolo [1,2-a]azocin-6-yl)carbamoyl)benzo[b]thiophen-5-yl)difluoromethyl) phosphonic acid] are 100 to 1000 nM and 300 to 3000 nM.
With `N#C[C@H]1[C@H](c2ccccc2)CN(C(=O)[C@@H]2CC[C@@H]3CCCC[C@H](NC(=O)c4cc5cc(C(F)P(=O)(O)O)ccc5s4)C(=O)N32)C12CC2` (relative stereo) [Compound 229, ((2-(((3S,6S,10aS)-3-((rel-trans)-7-cyano-6-phenyl-4-azaspiro[2.4]heptane-4-carbonyl)-5-oxodecahydropyrrolo[1,2-a]azocin-6-yl)carbamoyl)benzo[b]thiophen-5-yl)fluoromethyl)phosphonic acid], the IC50 in experiment [1] (setting [5]) is 1000 to 10000 nM; in experiment [2] (setting [6]) it was ≤ 300 nM.
`COc1ncccc1[C@@H]1CN(C(=O)[C@@H]2CC[C@@H]3CCCC[C@H](NC(=O)c4cc5cc(C(F)P(=O)(O)O)ccc5s4)C(=O)N32)C[C@H]1C#N` (relative stereo) [Compound 230, ((2-(((3S,6S,10aS)-3-((rel-trans)-3-cyano-4-(2-methoxypyridin-3-yl)pyrrolidine-1-carbonyl)-5-oxodecahydropyrrolo[1,2-a]azocin-6-yl)carbamoyl)benzo[b]thiophen-5-yl)fluoromethyl)phosphonic acid]: the IC50 in experiment [1] (setting [5]) was 1000 to 10000 nM; in experiment [2] (setting [6]), ≤ 300 nM.

In general, IC50 refers to the point on the concentration scale where inhibition reaches its midpoint.

(Values after patent US20250215029A1 (Recludix Pharma, Inc., priority 2022, published 2025).)
